According to patent EP4711377A1, “STEROID COMPOUND, PREPARATION METHOD THEREFOR, AND USE THEREOF” (Shujing Biopharma Co., Ltd, priority 2023, dated 2024):

Tests used:
[1] = system: mice with PTZ-induced convulsions; test: in vivo efficacy experiment in PTZ-induced epilepsy mouse model; design: species or system C57 mice; conditions: for Survival rate: 60 min before PTZ 120 mg/kg s.c., 30 min observation; for Number of clonic seizures / Number of tonic seizures / Clonic seizure latency period / Tonic seizure latency period: Mean ± SEM; for Clonic seizure latency period / Tonic seizure latency period: no seizure in 30 min recorded as 1800 s; for protective effects against acute epileptic seizures: conclusion in words
Procedure: Male C57 mice, purchased from SPF (Suzhou) Biotechnology Co., Ltd.
PTZ: a 120 mg/kg PTZ solution (administration volume: 10 mL/kg) was prepared with normal saline as the solvent.
Test compounds: solutions of the test compounds at 3/1/0.3 mg/kg (administration volume: 10 mL/kg) were prepared with Vehicle in section 1.4 as the solvent.
One hour before the test, the experimental animals were transferred into an operation room for acclimation.
The mice were randomly grouped, marked, and weighed, with 10 mice in each group. At 60 min before PTZ administration, the test compounds and Vehicle were separately orally administered.
The PTZ solution was administered subcutaneously before experimental observation, and this time point was recorded as the observation starting point.
Immediately after PTZ administration, the animals were placed in observation boxes and observed for 30 min. The following observations of the animals were recorded:
Clonic seizure: the animal has a generalized myoclonus that lasts for more than 3 s and is accompanied by falling.
Tonic seizure: the limbs are straightened at a 90° angle to the torso.
All metrology data were expressed as mean ± standard error of mean (Mean ± SEM), and the Prism 8.0 statistical software was used for data testing and analysis.

[2] = in vivo pharmacokinetic experiment in mice; design: species or system ICR mice; conditions: mouse, oral intragastric administration 10 mg/kg, single, plasma
Procedure: Male ICR mice were subjected to oral intragastric administration. The plasma concentrations of the compounds of the present disclosure in the mice were measured, the PK parameters were calculated, and pharmacokinetic evaluation was performed on the compounds of the present disclosure.
Drug preparation: according to the weight of the weighed drug, the preparation volume was calculated; 5% of DMSO and 5% of HS-15 were added sequentially; after the drug was fully dissolved, 90% of a 20% aqueous β-cyclodextrin solution was added, and the mixture was well mixed for later use.
Route of administration: oral intragastric administration, at a dose of 10 mg/kg.
Administration frequency and duration: single administration.
ICR mice were stratified according to body weight and then randomly grouped, with 9 mice per group. The mice were fasted overnight prior to the experiment. The mice were subjected to oral intragastric administration. At 0 h, 0.167 h, 0.333 h, 0.5 h, 1 h, 2 h, 4 h, 6 h, 8 h, 12 h, and 24 h, 50 µL of blood was collected from the fundus vein of each mouse into a sample tube containing heparin sodium as an anticoagulant, and then the tube was placed in wet ice and centrifuged at 4000 r·min^-1 for 10 min. The plasma was separated, and cryopreserved in a refrigerator at -80 °C for testing.
The concentrations of the plasma samples were measured by high-performance liquid chromatography-tandem mass spectrometry (LC-MS/MS). The retention times of the compounds and internal standard, chromatographic acquisitions, and integrals of chromatograms were processed using the software Analyst (AB SCIEX), and statistical analysis of the data was performed using the software Microsoft office. The plasma concentrations were processed using a non-compartmental model of the pharmacokinetic software WinNonlin™ Version 6.3 (Pharsight, Mountain View, CA), and the pharmacokinetic parameters were calculated using a linear log-trapezoidal method. Table 4. Results of pharmacokinetic experiment in mice

GABAa receptor (α1β2γ2) = GABAa receptor (α1β2γ2) (Homo sapiens, UniProt P14867+P47870); test: in vitro GABAa receptor (α1β2γ2) cellular activity assay, manual whole-cell patch clamp, enhancement of currents induced by 1 µM GABA; format: cell-based; conditions: CHO cells; for activation at 0.1 µM: read-out: Agonist ratio
Chain of GABAa receptor (α1β2γ2) (P14867 28-456): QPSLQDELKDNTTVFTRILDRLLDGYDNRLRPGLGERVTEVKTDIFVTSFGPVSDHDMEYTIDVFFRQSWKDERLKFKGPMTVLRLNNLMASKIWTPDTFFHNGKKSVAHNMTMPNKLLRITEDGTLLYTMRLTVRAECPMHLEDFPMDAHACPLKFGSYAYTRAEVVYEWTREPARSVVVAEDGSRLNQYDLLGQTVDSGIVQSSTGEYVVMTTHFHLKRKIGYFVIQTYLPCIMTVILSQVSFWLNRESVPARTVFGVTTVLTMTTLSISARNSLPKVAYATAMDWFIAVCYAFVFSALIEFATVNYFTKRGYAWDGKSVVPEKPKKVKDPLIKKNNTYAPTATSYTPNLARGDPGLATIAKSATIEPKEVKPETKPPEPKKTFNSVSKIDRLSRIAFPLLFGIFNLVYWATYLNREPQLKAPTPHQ
Chain of GABAa receptor (α1β2γ2) (P47870 25-512 limits assumed): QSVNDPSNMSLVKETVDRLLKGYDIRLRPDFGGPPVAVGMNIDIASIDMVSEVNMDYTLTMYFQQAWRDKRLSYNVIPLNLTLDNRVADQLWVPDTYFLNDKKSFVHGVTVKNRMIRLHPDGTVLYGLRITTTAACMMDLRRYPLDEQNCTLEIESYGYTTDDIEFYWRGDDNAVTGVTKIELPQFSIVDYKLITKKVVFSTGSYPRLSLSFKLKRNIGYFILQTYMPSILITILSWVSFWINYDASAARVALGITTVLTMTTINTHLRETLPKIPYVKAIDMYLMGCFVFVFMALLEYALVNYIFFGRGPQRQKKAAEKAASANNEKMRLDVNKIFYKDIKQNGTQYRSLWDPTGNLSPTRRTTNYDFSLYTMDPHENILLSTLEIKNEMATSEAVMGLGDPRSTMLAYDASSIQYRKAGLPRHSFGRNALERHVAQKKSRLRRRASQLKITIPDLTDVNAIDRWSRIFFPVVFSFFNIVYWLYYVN
Chain of GABAa receptor (α1β2γ2) (P18507 40-475 partner): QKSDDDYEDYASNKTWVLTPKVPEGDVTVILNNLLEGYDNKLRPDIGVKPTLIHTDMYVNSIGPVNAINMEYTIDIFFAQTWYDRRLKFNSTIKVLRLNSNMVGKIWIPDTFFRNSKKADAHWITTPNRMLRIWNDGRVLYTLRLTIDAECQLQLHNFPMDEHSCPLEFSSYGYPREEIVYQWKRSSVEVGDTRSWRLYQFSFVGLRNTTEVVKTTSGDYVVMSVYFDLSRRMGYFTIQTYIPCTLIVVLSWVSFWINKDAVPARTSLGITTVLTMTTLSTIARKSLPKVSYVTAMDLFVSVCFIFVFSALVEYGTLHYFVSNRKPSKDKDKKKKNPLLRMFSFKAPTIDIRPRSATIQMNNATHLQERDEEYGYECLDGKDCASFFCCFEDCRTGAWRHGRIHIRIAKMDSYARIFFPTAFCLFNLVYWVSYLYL
Procedure: The cells used in this experiment were derived from a CHO cell line that stably expressed normal GABAa receptor functions after transfection with human GABAa receptor α1, β2, and γ2 subunit cDNAs. The cell line was constructed by B'sys GmbH. The cells were cultured in a medium (purchased from Invitrogen) containing the following components: DMEM culture medium; 10% (v/v) inactivated fetal bovine serum; 5 µg/mL Puromycin; 250 µg/mL Hygromycin B; and 100 µg/mL Zeocin. The cells were grown in culture dishes containing the above medium and cultured in an incubator at 37 °C with 5% CO2. 12 h to 24 h before the electrophysiological experiment, the cells were transferred onto circular glass slides placed in culture dishes, and were grown under the same medium and culture conditions as above. The density of cells on each circular glass slide was required to meet the requirement that the overwhelming majority of cells were independent and individual.
In this experiment, a manual patch-clamp system HEKA EPC10 USB signal amplifier and digital conversion system (purchased from HEKA Electronics, Germany) were used for whole-cell current recording. The circular glass slides with surface-grown CHO GABAa cells (see the cell culture and requirement section above) were taken out from the culture dishes and then placed into an electrophysiological recording chamber under an inverted microscope. The recording chamber was continuously perfused with extracellular fluid (approximately 1-2 mL/min). In the experiment, the whole-cell current recording technique was employed to record chloride ion currents of GABAa channels. 1 µM GABA was used to activate chloride ion currents of GABAa channels on each cell as an initial control (the reason for using 1 µM GABA concentration was that: this concentration was an effective activation concentration for the GABAa ion channel agonist GABA on the cells used in this experiment, falling between 10% and 20%). Unless otherwise specified, the experiment was performed at conventional room temperature (about 25 °C), and only cells meeting the electrophysiological recording criteria were adopted. In the experiment, the cells were ruptured and sealed, and were clamped at -80 mV after entering a whole-cell state. 1 µM GABA acted on the cells through the drug perfusion system to induce chloride ion currents of GABAa channels; the action time was about 4 s, and the current magnitude was used as the initial control value. Subsequently, the cells were perfused and incubated with the test concentration compound for 3 min, and then a mixed solution of 1 µM GABA and the corresponding test concentration compound was applied to act on the cells to induce currents, so as to observe the enhancing effect of the test compound on the currents induced by 1 µM GABA. When the cell state stabilized, the test compound would be applied from low to high concentrations to act on the same cell. In the experiment, to avoid current reduction caused by desensitization of GABAa ion channels, the interval time for the test substance acting on the cells through the drug perfusion system was at least 180 s.
The experimental data were analyzed using data analysis software provided by HEKA Patchmaster, Microsoft Excel, and Graphpad Prism.

[3] = single concentration 0.1 µM, relative enhancement amplitude of GABAa receptor currents induced by 1 µM GABA

Molecule: 1-((2S,3S,5R,8R,9R,108,13S,14S,15R,17S)-3-Hydroxy-2,3,13,15-tetramethylhexadecahydro-1H-cyclopenta[a]phenanthren-17-yl)-2-(1H-1,2,3-triazol-1-yl)ethan-1-one [Example 8]
- Survival rate ([1]; dose 3 mg/kg p.o.): 100%

Molecule: C[C@@H]1C[C@H](C(=O)Cn2cc(C#N)cn2)[C@@]2(C)CC[C@H]3[C@@H](CC[C@@H]4C[C@](C)(O)[C@@H](C)C[C@@H]43)[C@H]12 [Example 2, 1-(2-((2S,3S,5R,8R,9R,10S,13S,14S,15R,17S)-3-Hydroxy-2,3,13,15-tetramethylhexadecahydro-1H-cyclopenta[a]phenanthren-17-yl)-2-oxoethyl)-1H-pyrazole-4-carbonitrile]
- AUC(0-t) [2]: 16600 ng·h/mL
- Cmax [2]: 1240 ng/mL
- Tmax [2]: 4 h
- half-life [2]: 7.38 h
- EC50 (GABAa receptor (α1β2γ2); positive modulator enhancing GABAa receptor currents induced by 1 µM GABA, read-out: EC50): 22 nM

Molecule: C[C@@H]1C[C@H](C(=O)Cn2ccc(C(F)(F)F)n2)[C@@]2(C)CC[C@H]3[C@@H](CC[C@@H]4C[C@](C)(O)[C@@H](C)C[C@@H]43)[C@H]12 [Example 4, 1-((2S,3S,5R,8R,9R,10S,13S,14S,15R,17S)-3-Hydroxy-2,3,13,15-tetramethylhexadecahydro-1H. cyclopenta[a]phenanthren-17-yl)-2-(3-(trifluoromethyl)-1H-pyrazol-1-yl)ethan-1-one]
- Agonist ratio (GABAa receptor (α1β2γ2); [3]): 626%

Molecule: C[C@@H]1C[C@H](C(=O)Cn2nc(C#N)cc2C#N)[C@@]2(C)CC[C@H]3[C@@H](CC[C@@H]4C[C@](C)(O)[C@@H](C)C[C@@H]43)[C@H]12 [Example 5, 1-(2-((2S,3S,5R,8R,9R,10S,13S,14S,15R,17S)-3-Hydroxy-2,3,13,15-tetramethylhexadecahydro-1H-cyclopenta[a]phenanthren-17-yl)-2-oxoethyl)-1H-pyrazole-3,5-dicarbonitrile]
- Survival rate ([1]; dose 0.3 mg/kg p.o.): 10%
- Survival rate ([1]; dose 1 mg/kg p.o.): 90%
- Survival rate ([1]; dose 3 mg/kg p.o.): 100%
- Number of clonic seizures ([1]; dose 3 mg/kg p.o.): 0.6±0.2
- Number of tonic seizures ([1]; dose 3 mg/kg p.o.): 0.0±0.0
- Clonic seizure latency period ([1]; dose 3 mg/kg p.o.): 1133.7 ± 192.7 s
- Tonic seizure latency period ([1]; dose 3 mg/kg p.o.): 1800.0 ± 0.0 s
- protective effects against acute epileptic seizures ([1]; extremely low dose (0.3 mpk)): partial protective effects
- protective effects against acute epileptic seizures ([1]; low dose (1 mpk)): significant protective effects

Molecule: C[C@@H]1C[C@H](C(=O)Cn2cncn2)[C@@]2(C)CC[C@H]3[C@@H](CC[C@@H]4C[C@](C)(O)[C@@H](C)C[C@@H]43)[C@H]12 [Example 6, 1-((2S,3S,5R,8R,9R,10S,13S,14S,15R,17S)-3-Hydroxy-2,3,13,15-tetramethylhexadecahydro-1H-cyclopenta[a]phenanthren-17-yl)-2-(1H-1,2,4-triazol-1-yl)ethan-1-one]
- Survival rate ([1]; dose 1 mg/kg p.o.): 90%
- Survival rate ([1]; dose 3 mg/kg p.o.): 100%
- Number of clonic seizures ([1]; dose 3 mg/kg p.o.): 0.8±0.2
- Number of tonic seizures ([1]; dose 3 mg/kg p.o.): 0.0±0.0
- Clonic seizure latency period ([1]; dose 3 mg/kg p.o.): 1132.4 ± 195.9 s
- Tonic seizure latency period ([1]; dose 3 mg/kg p.o.): 1800.0 ± 0.0 s
- protective effects against acute epileptic seizures ([1]; low dose (1 mpk)): significant protective effects
- activation at 0.1 µM (GABAa receptor (α1β2γ2); [3]): 380%

Molecule: C[C@@H]1C[C@H](C(=O)Cn2nccn2)[C@@]2(C)CC[C@H]3[C@@H](CC[C@@H]4C[C@](C)(O)[C@@H](C)C[C@@H]43)[C@H]12 [Example 7, 1-((2S,3S,5R,8R,9R,10S,13S,14S,15R,17S)-3-Hydroxy-2,3,13,15-tetramethylhexadecahydro-1H-cyclopenta[a]phenanthren-17-yl)-2-(2H-1,2,3-triazol-2-yl)ethan-1-one]
- Survival rate ([1]; dose 3 mg/kg p.o.): 100%
- activation at 0.1 µM (GABAa receptor (α1β2γ2); [3]): 794%

Molecule: C[C@@H]1C[C@H](C(=O)Cn2cnnn2)[C@@]2(C)CC[C@H]3[C@@H](CC[C@@H]4C[C@](C)(O)[C@@H](C)C[C@@H]43)[C@H]12 [Example 10, 1-((2S,3S,5R,8R,9R,10S,13S,14S,15R,17S)-3-Hydroxy-2,3,13,15-tetramethylhexadecahydro-1H-cyclopenta[a]phenanthren-17-yl)-2-(1H-tetrazol-1-yl)ethan-1-one]
- Survival rate ([1]; dose 3 mg/kg p.o.): 100%

Molecule: C[C@@H]1C[C@H](C(=O)Cn2ncnn2)[C@@]2(C)CC[C@H]3[C@@H](CC[C@@H]4C[C@H](O)[C@@H](C)C[C@@H]43)[C@H]12 [Example 17, 1-((2S,3S,5R,8R,9R,10S,13S,14S,15R,17S)-3-Hydroxy-2,13,15-trimethylhexadecahydro-1H-cyclopenta[a]phenanthren-17-yl)-2-(2H-tetrazol-2-yl)ethan-1-one]
- activation at 0.1 µM (GABAa receptor (α1β2γ2); [3]): 217%

Molecule: C[C@H]1C[C@H]2[C@H](CC[C@@H]3[C@@H]2CC[C@]2(C)[C@@H](C(=O)Cn4cc(C#N)cn4)CC[C@@H]32)C[C@]1(C)O [Example 19, 1-(2-((2S,3S,5R,8R,9R,10S,13S,14S,17S)-3-Hydroxy-2,3,13-trimethylhexadecahydro-1H-cyclopenta[a]phenanthren-17-yl)-2-oxoethyl)-1H-pyrazole-4-carbonitrile]
- AUC(0-t) ([2]; male, ICR): 26700 ng·h/mL
- Cmax ([2]; male, ICR): 1650 ng/mL
- Tmax ([2]; male, ICR): 8 h
- half-life ([2]; male, ICR): > 8 h
